Experimental data from patent US20090017139A1, “Iodine therapy dosing for treating medical conditions” (priority 2007, published 2009).
Like-named read-outs stand apart in the source and are kept apart here.

Legend:
women with mastalgia = conditions: cited from earlier work; for patients reporting headaches: 6 month study
breast cancer cell lines = conditions: cited from earlier work
[1] = cited from earlier work
[2] = I2 compared to iodide, cited from earlier work
estrogen receptor = experiment: Example 5: immunocytochemical detection of estrogen receptor in vaginal smears after 2 months of daily I2; type: in vivo, Sprague-Dawley rats; conditions: for Immunocytochemical Detection of Estrogen Receptor, Scores (mean ± SD), End: after 2 months daily dosing; for Immunocytochemical Detection of Estrogen Receptor, Scores (mean ± SD), End / Immunocytochemical Detection of Estrogen Receptor, Scores (mean ± SD), Baseline: scale +1 to +3, dissolved IoGen tablets; for Immunocytochemical Detection of Estrogen Receptor, Scores (mean ± SD), Baseline: before dosing
Excerpt: A total of 24 nulliparous and nonpregnant female Sprague-Dawley rats were received from Charles River Laboratories, Kingston, N.Y. The animals were 10 weeks of age and were examined for signs of disease or injury upon receipt. The animals were housed in stainless steel cages and fed LabDiet™ Certified Rodent Chow 5002 (PMI Feeds, Inc., a subsidiary of Purina Mills, Inc.) ad libitum and were provided fresh filtered tap water ad libitum. Environmental controls were set to maintain a temperature of 18 to 26° C. and a relative humidity of 30 to 70%. A 12-hour light/dark cycle was employed and the room underwent a minimum of ten fresh air changes/hour.
The animals were allowed to acclimate to laboratory conditions for 2 weeks. No abnormal findings excluding animals from study were noted. The animals were released from conditioning following an examination. Each animal was identified with a unique number that was indicated by ear punch. Cage labels, color-coded by group, identified each cage. The animals were maintained at laboratory conditions for an additional 2 weeks and then randomized into treatment groups by weight.
Tablets of IoGen, a registered trademark of Symbollon Pharmaceuticals Inc. of Framingham Mass. USA were dissolved in distilled water. IoGen tablets are compositions of iodide and iodate in a pharmaceutically acceptable carrier which will form molecular iodine “I2” once in contact with the gastric fluid in the stomach via a diffusion controlled oxidation reduction reaction as taught in U.S. Pat. No. 5,885,592 the disclosure of which is incorporated herein by reference. For this example the IoGen tablets weighted 400 mg and contained the equivalent of 6 mg of I2 in the form of iodide and iodate. The dissolved IoGen tables were used to provide defined daily doses of I2 to rats according to Table 1 below.
After randomization vaginal smears were taken from rats using a cotton swab; the swab was inserted into the vagina and rotated 360° in a clockwise direction, then the swab was smeared onto a glass slide and the smear was fixed in 3.7% formaldehyde with phosphate buffered saline (PBS) for 15 minutes. The slides were washed in PBS for 5 minutes and subsequently immersed in cold methanol and acetone (both at −10° C.) for 3 minutes. After a final rinse in cold PBS for 5 minutes the slides were stored at −20° C. in a solution of PBS-glycerol.
Rats were then dosed daily for the next 2 months according to the schedule in Table 1. […] After 2 months of daily dosing vaginal swabs were taken again and slides were prepared as on day 1 of the dosing regimen.
Immunocytochemical (IC) detection of estrogen receptor (hereafter “ER”) status was accomplished using mouse monoclonal antibody 6F11 from Vector Laboratories (Burlingame, Calif.). A gentle stream of 10 mM citrate buffer (pH 6.0) was passed over each slide for 45 minutes and then a 1/25 dilution of the antibody was incubated with slides at room temperature for 30 minutes. Slides were washed and the Vectastain ABC Kit for Mouse IgG (Vector Laboratories; Burlingame, Calif.) was used to visualize ER. The chromophone 3,3′ diaminobenzidine and peroxidase were used to stain areas of the slides that contained ER. The intensity of staining was scored semi quantitatively on a scale of +1 to +3. Each dosing group contained 6 animals.

[3] = system: female patients with fibrocystic breast condition; experiment: Example 2: 36 month study, treatment emergent thyroid status in iodine adapted patients; type: in vivo, human; conditions: for Hyperthyroidism Overt ↓TSH ↑T4 / Hyperthyroidism Subclinical ↓TSH / Hypothyroidism Overt ↑TSH (5-10) ↓T4 / Hypothyroidism Overt ↑TSH (10-20) ↓T4 / Hypothyroidism Overt ↑TSH (>20) ↓T4 / Hypothyroidism Subclinical ↑TSH (5-10) / Hypothyroidism Subclinical ↑TSH (10-20) / Hypothyroidism Subclinical ↑TSH (>20): iodine adapted, patients (percent of dose group)
Description: Female patients already receiving aqueous I2 therapy for fibrocystic breast condition were enrolled in study that ran for 36 months. Patients in this study were dosed at I2 levels that ranged from 3 to 12 mg/d. A total of 923 patients were enrolled; over 700 patients remained on drug for at least 2 years. The ages of participants ranged from 17 to 78 years with an average age of 47.4 years.
Variations in treatment emergent thyroid status were evaluated based on TSH and T4 values (see Table 1). […] Patients were categorized sub-clinical hypothyroid if TSH was elevated and T4 values were normal; patients with depressed T4 values were considered overtly hypothyroid.

What does the source list for `II` [I2, molecular iodine]?
patients reporting headaches (women with mastalgia; 1.5 mg/day group): 6.3%; patients reporting headaches (women with mastalgia; 3.0 mg/day group): 26%; patients reporting headaches (women with mastalgia; 6.0 mg/day group): 12%; change in five thyroid function tests (T3, T4, T uptake, TSH, FT3) (women with mastalgia; any treatment group): No statistically significant change; effect on estrogen receptor concentration (breast cancer cell lines): reducing the concentration of estrogen receptor; iodine uptake in thyroid compared to iodide ([1]; oral administration): half as much; reduction of thyroidal uptake by perchlorate ([1]; perchlorate 6 mg i.p., 2 hr predosing): 40%; percentage of administered iodine retained in the stomach contents and covalently bound to a lipid material [2]: larger percentage; percentage of iodine retained in thyroid 72 hours after administration, compared to iodide [2]: significantly less; retention of iodine in thyroid at 72 hours, less than with iodide ([2]; fasted rats, acute exposure): about 30%; Immunocytochemical Detection of Estrogen Receptor, Scores (mean ± SD), End (estrogen receptor; Group 2, .06 mg I2/kg/day): 1.167 ± 0.752; Immunocytochemical Detection of Estrogen Receptor, Scores (mean ± SD), Baseline (estrogen receptor; Group 2, .06 mg I2/kg/day): 2.000 ± 0.632; Immunocytochemical Detection of Estrogen Receptor, Scores (mean ± SD), End (estrogen receptor; Group 3, 0.2 mg I2/kg/day): 1.167 ± 0.408; Immunocytochemical Detection of Estrogen Receptor, Scores (mean ± SD), Baseline (estrogen receptor; Group 3, 0.2 mg I2/kg/day): 2.167 ± 0.753; Immunocytochemical Detection of Estrogen Receptor, Scores (mean ± SD), End (estrogen receptor; Group 4, 2 mg I2/kg/day): 0.833 ± 0.408; Immunocytochemical Detection of Estrogen Receptor, Scores (mean ± SD), Baseline (estrogen receptor; Group 4, 2 mg I2/kg/day): 2.333 ± 0.516; effect of daily treatment on ER in the endometrium (estrogen receptor; trend across the 3 dosing groups p<0.001): down regulation of ER; change from baseline to end in ER score, placebo versus all rats that received I2 (estrogen receptor; unpaired t-test, p=0.015): statistically significant difference; proportion of patients with sub-clinical hypothyroidism ([3]; 3 mg dose group): 13%; rate of all sub-clinical conditions ([3]; 3 mg dose group): 18.3%; proportion of patients with sub-clinical hypothyroidism ([3]; 6 mg dose group): 16.5%; rate of all sub-clinical conditions ([3]; 6 mg dose group): 22.2%; Hyperthyroidism Overt ↓TSH ↑T4 ([3]; I2 3.0 mg/d): 1 (0.3); Hyperthyroidism Subclinical ↓TSH ([3]; I2 3.0 mg/d): 16 (5.3); Hypothyroidism Overt ↑TSH (5-10) ↓T4 ([3]; I2 3.0 mg/d): 2 (0.4); Hypothyroidism Overt ↑TSH (10-20) ↓T4 ([3]; I2 3.0 mg/d): 0 (0.0); Hypothyroidism Overt ↑TSH (>20) ↓T4 ([3]; I2 3.0 mg/d): 0 (0.0); Hypothyroidism Subclinical ↑TSH (5-10) ([3]; I2 3.0 mg/d): 27 (9.0); Hypothyroidism Subclinical ↑TSH (10-20) ([3]; I2 3.0 mg/d): 10 (3.3); Hypothyroidism Subclinical ↑TSH (>20) ([3]; I2 3.0 mg/d): 2 (0.7); Hyperthyroidism Overt ↓TSH ↑T4 ([3]; I2 6.0 mg/d): 1 (0.2); Hyperthyroidism Subclinical ↓TSH ([3]; I2 6.0 mg/d): 28 (5.7); Hypothyroidism Overt ↑TSH (5-10) ↓T4 ([3]; I2 6.0 mg/d): 0 (0.0); Hypothyroidism Overt ↑TSH (10-20) ↓T4 ([3]; I2 6.0 mg/d): 2 (0.4); Hypothyroidism Overt ↑TSH (>20) ↓T4 ([3]; I2 6.0 mg/d): 2 (0.4); Hypothyroidism Subclinical ↑TSH (5-10) ([3]; I2 6.0 mg/d): 70 (14); Hypothyroidism Subclinical ↑TSH (10-20) ([3]; I2 6.0 mg/d): 10 (2.0); Hypothyroidism Subclinical ↑TSH (>20) ([3]; I2 6.0 mg/d): 1 (0.2); Hyperthyroidism Overt ↓TSH ↑T4 ([3]; I2 9.0 mg/d): 0 (0.0); Hyperthyroidism Subclinical ↓TSH ([3]; I2 9.0 mg/d): 0 (0.0); Hypothyroidism Overt ↑TSH (5-10) ↓T4 ([3]; I2 9.0 mg/d): 0 (0.0); Hypothyroidism Overt ↑TSH (10-20) ↓T4 ([3]; I2 9.0 mg/d): 0 (0.0); Hypothyroidism Overt ↑TSH (>20) ↓T4 ([3]; I2 9.0 mg/d): 0 (0.0); Hypothyroidism Subclinical ↑TSH (5-10) ([3]; I2 9.0 mg/d): 0 (0.0); Hypothyroidism Subclinical ↑TSH (10-20) ([3]; I2 9.0 mg/d): 1 (6.3); Hypothyroidism Subclinical ↑TSH (>20) ([3]; I2 9.0 mg/d): 1 (6.3); Hyperthyroidism Overt ↓TSH ↑T4 ([3]; I2 12.0 mg/d): 0 (0.0); Hyperthyroidism Subclinical ↓TSH ([3]; I2 12.0 mg/d): 1 (25); Hypothyroidism Overt ↑TSH (5-10) ↓T4 ([3]; I2 12.0 mg/d): 0 (0.0); Hypothyroidism Overt ↑TSH (10-20) ↓T4 ([3]; I2 12.0 mg/d): 0 (0.0); Hypothyroidism Overt ↑TSH (>20) ↓T4 ([3]; I2 12.0 mg/d): 0 (0.0); Hypothyroidism Subclinical ↑TSH (5-10) ([3]; I2 12.0 mg/d): 0 (0.0); Hypothyroidism Subclinical ↑TSH (10-20) ([3]; I2 12.0 mg/d): 0 (0.0); Hypothyroidism Subclinical ↑TSH (>20) ([3]; I2 12.0 mg/d): 0 (0.0); Overt hypothyroidism, patients (second statement, compared to prevalence of overt hyperthyroidism) ([3]; all patients, 3 to 12 mg/d): 0.5%; overall incidence of treatment emergent sub-clinical hyper- or hypothyroidism ([3]; all patients, 3 to 12 mg/d): 20.6%; Overt hypothyroidism, patients ([3]; all patients, 3 to 12 mg/d, first statement): 0.2%
